Test results reported in patent US20040127395A1 (priority 2002, published 2004).

Legend:
[1] = target: human histamine H4 receptor (Homo sapiens, UniProt Q9H3N8)
[2] = system: ovalbumin-sensitized mice; assay: Airway hyper-responsiveness to methacholine in ovalbumin-sensitized mice (whole body plethysmography); format: in vivo, mouse; details: any of the first three doses, FIG. 7
Procedure: Mice (n=8 per group) were sensitized by intraperitoneal injection of ovalbumin/alum on Days 0 and 14. On each of Days 21 through 24, mice were pretreated for 15 min with vehicle or with (5-chloro-1H-benzoimidazol-2-yl)-(4-methyl-piperazin-1-yl)-methanone prior to a 20 min challenge with PBS or ovalbumin.
In one experiment, (5-chloro-1H-benzoimidazol-2-yl)-(4-methyl-piperazin-1-yl)-methanone was administered p.o. at 5, 20, or 50 mg/kg. In a second experiment, (5-chloro-1H-benzoimidazol-2-yl)-(4-methyl-piperazin-1-yl)-methanone was administered p.o. at 0.5, 2, or 5 mg/kg.
Airway hyper-responsiveness in ovalbumin-sensitized animals was monitored in conscious mice by whole body plethysmography (Buxco). Mice (n=8 per group) were treated as described above for the cell measurements.

[3] = system: ovalbumin-sensitized mice; assay: Ovalbumin-induced lung inflammation model, cell counts in BAL fluid; format: in vivo, mouse; details: for maximum reduction in the number of eosinophils: BAL fluid
[4] = system: mouse bone marrow-derived mast cells; assay: Histamine-induced mast cell chemotaxis in vitro (transwell); format: cell-based; details: Mus musculus, Mast cell
Procedure: Mast cells were differentiated from bone marrow derived from BALB/c or C57bl/6j mice. Mice were sacrificed by asphyxiation under 95% CO2 and femurs were removed. Bone marrow was aseptically isolated from the femurs. The cells (5×10^5/mL) were cultured at 37° C. with 5% CO2 in culture medium consisting of RPMI with 10% FCS, 0.1 mM non-essential amino acids, 50 μg/mL penicillin/streptomycin and 20% conditioned WEHI-3 medium. Conditioned WEHI-3 medium was prepared from WEHI-3 cells (ATCC), which were cultured in Iscoves Dulbeccos medium with 10% FCS, 4 mM L-glutamine, 1.5 g/L sodium carbonate, 0.05 μM beta-mercaptoethanol and 50 μg/mL penicillin/streptomycin. The filtered supernatant was used as the conditioned WEHI-3 medium. After 16 h in culture, the bone marrow cells were transferred to a new flask. The medium was refreshed once per week. After four weeks, the cells were tested by flow cytometry for IgE receptor and CD117 (c-kit) expression. Mast cells were incubated with anti-DNP IgE (ICN Pharmaceuticals, Costa Mesa, Calif.) or vehicle for 30 min, followed by FITC labeled anti-IgE (Pharmingen) or FITC labeled CD117 (Pharmingen) for 30 min on ice. The cultured mast cells consisted of a homogeneous population which was >99% IgE receptor positive and >99% CD117 positive. Mast cells of four to eight weeks culture time were used for experiments.
Transwells (Costar, Cambridge, Mass.) of a pore size of […] were coated with 100 μL of 100 ng/mL human fibronectin (Sigma) for 2 h at room temperature. […] Mast cells (2×10^5/well) were added to the top chamber. The plates were incubated for 3 h at 37° C. Transwells were removed and the number of cells in the bottom chamber was counted for 60 sec using a flow cytometer.

[5] = system: mast cells in the mouse trachea; assay: Histamine-induced accumulation of mast cells in the mouse trachea in vivo; details: 20 mg/kg subcutaneous, 15 min prior to each histamine aerosol, FIG. 4
human eosinophils = assay: Histamine-induced eosinophil shape change (GAFS); format: cell-based; details: Eosinophil; human eosinophils; read-out: IC50 for inhibition of histamine-induced eosinophil shape change
Procedure: Human granulocytes were isolated from human blood by a Ficoll gradient. The red blood cells were lysed with 5-10× Qiagen lysis buffer at room temperature for 5-7 min. Granulocytes were harvested and washed once with FACS buffer. The cells were resuspended at a density of 2×10^6 cells/mL in reaction buffer. […] Ten minutes later, the cells were transferred to ice and fixed with 250 μL of ice-cold fixative buffer (2% formaldehyde) for 1 min.

[6] = p.o., all doses of 5 mg/kg and greater, FIG. 5
[7] = p.o., highest dose tested (50 mg/kg)

Chain of human histamine H4 receptor (Q9H3N8 whole entry): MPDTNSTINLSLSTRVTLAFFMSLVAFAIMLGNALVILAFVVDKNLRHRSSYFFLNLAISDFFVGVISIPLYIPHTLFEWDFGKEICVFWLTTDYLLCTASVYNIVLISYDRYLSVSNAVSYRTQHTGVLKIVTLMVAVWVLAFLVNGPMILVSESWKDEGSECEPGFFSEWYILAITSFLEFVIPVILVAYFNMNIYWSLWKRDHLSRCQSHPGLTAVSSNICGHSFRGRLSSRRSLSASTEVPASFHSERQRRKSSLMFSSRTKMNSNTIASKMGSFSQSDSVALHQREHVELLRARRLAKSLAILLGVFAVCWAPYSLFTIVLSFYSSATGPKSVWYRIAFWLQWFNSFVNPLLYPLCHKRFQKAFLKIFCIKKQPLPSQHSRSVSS

**Q.** `CN1CCN(C(=O)c2cc3cc(Br)ccc3[nH]2)CC1` [(5-Bromo-1H-indol-2-yl)-(4-methyl-piperazin-1-yl)-methanone] was tested. Which Ki [1] did it give?
**A.** 8 nM

**Q.** Which results are given for `CN1CCN(C(=O)c2nc3cc(Cl)ccc3[nH]2)CC1` [(5-Chloro-1H-benzoimidazol-2-yl)-(4-methyl-piperazin-1-yl)-methanone]?
**A.** airway hyper-responsiveness to methacholine (Penh) [2]: reduced; macrophages in BAL fluid ([3]; p.o., 5 mg/kg, second experiment): reduction; maximum reduction in the number of eosinophils ([3]; p.o.): 50%; number of eosinophils in BAL fluid [3, 6]: significantly reduced; total cell number in BAL fluid [3, 6]: significantly reduced; number of macrophages in BAL fluid [3, 7]: reduction; number of neutrophils in BAL fluid [3, 7]: increase; number of lymphocytes in BAL fluid ([3]; p.o., same doses which provided maximum reduction in eosinophils): significantly reduced; inhibition at 1 µM [4]: 84%; inhibition at 10 µM [4]: 97%

**Q.** What does the source list for `CN1CCN(C(=O)c2cc3cc(Cl)ccc3[nH]2)CC1` [(5-Chloro-1H-indol-2-yl)-(4-methyl-piperazin-1-yl)-methanone]?
**A.** number of eosinophils in BAL fluid ([3]; s.c., 60 and 100 mg/kg, FIG. 6): significantly reduced; total cell number in BAL fluid ([3]; s.c., 60 and 100 mg/kg, FIG. 6): significantly reduced; maximum reduction in the number of eosinophils ([3]; s.c.): 50%; number of lymphocytes in BAL fluid ([3]; s.c., same doses that provided reduction in eosinophils): significantly reduced; histamine-induced migration of mast cells into the sub-epithelial space [5]: blocked; IC50 (human eosinophils): 270 nM
